Experimental data published in patent US20130260436A1, “Methods of Identifying and Characterizing Natural Product Gene Clusters” (Victoria LInk Limited, priority 2010, published 2013).

Tests used:
[1] = Effect of pH on indigoidine stability (loss of colouration, A590); assay type: physicochemical; settings: culture supernatant, 50 mM sodium phosphate buffer, 20 min
Description: (A) Diluted sterile supernatant from an indigoidine producing culture was incubated for 20 min with 50 mM sodium phosphate buffer at each of the indicated pH values in triplicate. Loss of colouration was then assessed by measuring A590. Error bars are presented as +/− one standard deviation. (B) Indigoidine reactions differing only in the pH of the buffer used are shown.
The supernatant from BpsA-expressing cultures reached a much higher A590 (˜1.2) than the maximum achieved from any in vitro experiments (˜0.3) (not shown). Without wishing to be bound by theory, the inventors hypothesized that that since indigoidine produced and exported from a cell in vivo was effectively removed from exposure to intracellular enzymes, the loss of in vitro product may have been due to enzymatic degradation in the in vitro assay preparations. This could be due to BpsA itself, the activating PPTase or an undetected contaminating species. To test this possibility, filter sterilized culture supernatant containing indigoidine was incubated with various concentrations of each enzyme preparation used for in vitro assays. No difference in pigment levels resulted from this treatment. It was concluded that the loss of pigmentation seen in vitro was not enzyme catalysed. […] A more detailed analysis of the relationship between pH and pigment stability was then conducted. […]

[2] = Kuhn et al, 1965; cited from earlier work
E. coli = assay type: cell-based; settings: high levels of active BpsA, excess L-Gln, extended time
Excerpt: In one embodiment, activation of the NRPS BpsA then produces the dye, indigoidine. […] Due to this toxicity, E. coli cells expressing high levels of active BpsA in the presence of excess L-Gln for an extended period of time are not viable. Toxicity may be avoided by plating an E. coli reporter strain comprising a CNA expression construct on a selection medium lacking an inducer of BpsA expression. In one embodiment the inducer is IPTG.
We constructed plasmids that allowed IPTG regulated co-expression of a candidate PPTase and BpsA in E. coli BL21(DE3). To enable IPTG regulated co-expression the BpsA gene of S. lavendulae ATCC 11924 was cloned into pCDFDUET-1 (Novagen) and three candidate PPTases into the (origin of replication compatible) vector pET28a(+). […] In contrast, if IPTG was absent from the medium viable co-transformed cells were recovered with good efficiency (not shown). […] In order to circumvent this problem we employed auto-induction agar plates, prepared by addition of 1.5% agar to Studier ZYP-5052 auto-induction medium (Studier 2005). Use of auto-induction agar plates allowed for both rapid growth and efficient induction of pigment production following extended incubation at room temperature.
Initial trials were run using E. coli harbouring a P. putida PPTase expression plasmid. […]

Sfp = Sfp (Bacillus spizizenii, UniProt G4NQW2); assay: BpsA coupled PPTase inhibition assay, Sfp; assay type: biochemical, B. subtilis subsp. spizizenii ATCC6633; settings: for IC50: IC50, Sfp, 95% CI in parentheses; for Ki: Sfp, Cheng-Prusoff, competitive inhibition
Chain of Sfp (G4NQW2 entry or part of it): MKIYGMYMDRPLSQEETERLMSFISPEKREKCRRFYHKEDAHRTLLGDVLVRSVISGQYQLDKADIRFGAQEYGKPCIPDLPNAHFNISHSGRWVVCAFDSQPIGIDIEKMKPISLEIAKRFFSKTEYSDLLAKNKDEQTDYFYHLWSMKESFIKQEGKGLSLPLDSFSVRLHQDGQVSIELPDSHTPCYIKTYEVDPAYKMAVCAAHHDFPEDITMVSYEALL

all three PPTases = assay: BpsA coupled PPTase inhibition assay, summary over all three PPTases
Description: Each of the three PPTases was evaluated for inhibition across a two-fold serial dilution series of 6-NOBP (250-0.12 μM) with CoA concentration fixed at either 10 or 2.5 μM. […] Derived Ki values were most consistent between CoA concentrations when the Cheng-Prusoff equation for competitive inhibition was employed.
Triplicate two fold serial dilution series (250-0.12 μM) of the previously identified PPTase inhibitor 6-NOBP were established in a final volume of 50 ml 10% DMSO in a 96 wp. 100 μL of reaction mix (20 or 5 μM CoA, 5 mM ATP, 20 mM MgCl2, 8 mM L-Gln and 100 mM Tris-CL, 1.66 μM apo-BpsA, pH 7.8) was then added to each well. Reactions were then initiated by addition of 50 μL 0.32-1.0 μM PPTase in water to each well followed by mixing at 1000 rpm for 10 s. A590 values were then recorded and PPTase velocities determined as previously described.

PP1183 = PP1183 (Pseudomonas putida, UniProt Q88NM4); assay: BpsA coupled PPTase inhibition assay, PP1183; assay type: biochemical, P. putida KT2440; settings: for IC50: IC50, PP1183, 95% CI in parentheses; for Ki: PP1183, Cheng-Prusoff, competitive inhibition
Chain of PP1183 (Q88NM4 entry or part of it): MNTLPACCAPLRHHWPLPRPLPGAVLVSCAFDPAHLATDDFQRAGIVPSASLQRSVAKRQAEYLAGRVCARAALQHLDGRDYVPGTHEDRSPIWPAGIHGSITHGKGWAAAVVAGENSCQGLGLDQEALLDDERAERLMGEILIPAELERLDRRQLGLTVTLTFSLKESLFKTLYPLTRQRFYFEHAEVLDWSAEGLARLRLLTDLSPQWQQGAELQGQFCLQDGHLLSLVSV

PcpS [3] = assay: Screening of the LOPAC1280 library for PcpS inhibitors with the BpsA coupled assay; assay type: biochemical, P. aeruginosa; settings: compound approximately 18 μM; 0.18 μM PcpS
Description: 1.8 μL of each compound from a Lopac^1280 library plate was added to 30 μL of 10% DMSO in MQ using a CyBio CyBi-well, giving a final compound concentration of approximately 18 μM. Next 50 μl, of a master mix containing 5 μM Co-enzyme A, 1.66 μM BpsA, 20 mM MgCl2, 5 mM ATP, 8 mM L-Gln, 100 mM Tris-HCl pH 7.8 and MQ was added. To initiate the reaction 20 μL of PcpS at a final reaction concentration of 0.18 μM and MQ was added rapidly, using an automatic dispensing Pipette. The plate was then shaken for 10 seconds at 1000 rpm to mix the compounds. The plate was then read 25 times to measure the Absorbance at 590 nm (with 20 second intervals between each read) in an EnSpire plate reader at 25° C. […] Negative and positive controls were established in wells in these columns, and used to monitor the reaction. […] Both control reactions were run in triplicate.
1.8 μL of each compound from a Lopac^1280 library plate was added to 304 of 10% DMSO in MQ using a CyBio CyBi-well, giving a final compound concentration of approximately 18 μM. Next 50 μL of a master mix containing 5 μM Co-enzyme A, 1.66 μM BpsA, 20 mM MgCl2, 5 mM ATP, 8 mM L-Gln, 100 mM Tris-HCl pH 7.8 and MQ was added. […] The plate was then read 25 times to measure the Absorbance at 590 nm (with 20 second intervals between each read) in an EnSpire plate reader at 25° C. […]

PcpS [4] = molecular target: PcpS (Pseudomonas aeruginosa, UniProt Q9I4H2); assay: BpsA coupled PPTase inhibition assay, PcpS; assay type: biochemical; settings: for IC50: 95% CI in parentheses; for Ki: Cheng-Prusoff, competitive inhibition
Chain of PcpS (Pseudomonas aeruginosa, UniProt Q9I4H2) (Q9I4H2 entry or part of it): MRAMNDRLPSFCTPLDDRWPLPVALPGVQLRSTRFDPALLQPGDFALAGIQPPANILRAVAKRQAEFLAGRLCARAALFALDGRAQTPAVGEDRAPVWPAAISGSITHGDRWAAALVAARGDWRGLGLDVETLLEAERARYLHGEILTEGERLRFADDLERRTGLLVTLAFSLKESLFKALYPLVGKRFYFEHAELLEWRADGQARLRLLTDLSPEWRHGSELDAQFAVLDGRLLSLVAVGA

holo-BpsA = molecular target: T1, holo-BpsA (Streptomyces lavendulae, UniProt Q1MWN4); assay: Inhibition of indigoidine synthesis by pre-activated holo-BpsA (counter-screen); assay type: biochemical, S. lavendulae ATCC 11924; settings: pre-activated holo-BpsA in isolation
T1 construct: 6His; made in house; host or cells: E. coli
T1 sequence (Q1MWN4 1-1282): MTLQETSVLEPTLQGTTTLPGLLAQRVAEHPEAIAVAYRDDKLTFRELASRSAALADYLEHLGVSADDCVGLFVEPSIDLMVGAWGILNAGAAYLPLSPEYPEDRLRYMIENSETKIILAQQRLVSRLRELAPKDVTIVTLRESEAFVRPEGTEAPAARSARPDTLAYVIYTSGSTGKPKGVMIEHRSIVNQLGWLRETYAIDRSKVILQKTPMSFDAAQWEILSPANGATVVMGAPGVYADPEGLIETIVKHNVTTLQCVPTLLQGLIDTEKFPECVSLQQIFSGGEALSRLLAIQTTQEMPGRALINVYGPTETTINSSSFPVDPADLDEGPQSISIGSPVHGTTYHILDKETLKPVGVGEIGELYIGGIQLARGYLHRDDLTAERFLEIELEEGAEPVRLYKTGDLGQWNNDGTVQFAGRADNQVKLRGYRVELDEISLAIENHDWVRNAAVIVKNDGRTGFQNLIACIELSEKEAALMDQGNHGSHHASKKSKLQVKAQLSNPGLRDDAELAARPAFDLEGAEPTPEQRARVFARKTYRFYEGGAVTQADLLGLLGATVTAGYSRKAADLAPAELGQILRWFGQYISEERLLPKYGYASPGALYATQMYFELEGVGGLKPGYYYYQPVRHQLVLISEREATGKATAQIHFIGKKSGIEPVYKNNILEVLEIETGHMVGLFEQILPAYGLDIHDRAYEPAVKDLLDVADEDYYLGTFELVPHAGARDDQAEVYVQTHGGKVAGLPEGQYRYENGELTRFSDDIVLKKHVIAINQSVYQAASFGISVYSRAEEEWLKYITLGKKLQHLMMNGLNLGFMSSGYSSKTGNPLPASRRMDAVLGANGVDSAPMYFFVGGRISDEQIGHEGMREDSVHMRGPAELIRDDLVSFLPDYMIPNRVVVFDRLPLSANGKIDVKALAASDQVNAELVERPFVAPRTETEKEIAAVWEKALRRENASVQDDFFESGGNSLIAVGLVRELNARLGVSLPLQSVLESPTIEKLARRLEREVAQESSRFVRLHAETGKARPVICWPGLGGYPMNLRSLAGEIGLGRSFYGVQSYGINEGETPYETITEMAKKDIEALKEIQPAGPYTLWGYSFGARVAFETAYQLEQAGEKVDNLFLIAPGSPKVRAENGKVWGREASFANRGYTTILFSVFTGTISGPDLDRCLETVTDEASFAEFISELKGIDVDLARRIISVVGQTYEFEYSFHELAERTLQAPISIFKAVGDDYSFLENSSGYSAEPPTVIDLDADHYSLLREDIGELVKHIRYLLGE

PcpS [5] = assay: Qualitative assessment of PcpS inhibition relative to 6-NOBP; assay type: biochemical, P. aeruginosa; settings: each inhibitor 20 μM; 0.18 μM PcpS
Description: Duplicate wells with different inhibitors added. The No PcpS wells have ddH2O added instead of PcpS. The BpsA only wells have DMSO added instead of an inhibitor. The 6-NOBP wells have had 6-NOBP added at a final concentration of 20 μM. The Bay 11-7085 wells have had Bay 11-7085 added to a final concentration of 20 μM.
Bay 11-7085 was then serially diluted from 20 μM to 0.625 μM across the wells. The reaction was initiated by the addition of PcpS to a final concentration of 0.18 μM and indigoidine production was then monitored at 590 nm. Each concentration was tested in triplicate and the average of the three wells was taken to calculate the maximum velocity. The maximum velocity in each well was expressed as a percentage of the maximum velocity in the wells where no Bay11-7085 was present. For qualitative assessment of Bay11-7085 mediated inhibition of PcpS relative to 6-NOBP, duplicate wells were established with either 20 μM of each inhibitor or with DMSO added instead of an inhibitor (positive control). For a negative control, ddH2O was added instead of PcpS. Reactions were initiated by addition of 20 μL of PcpS at a final reaction concentration of 0.18 μM (or H2O for the negative control) using an automatic dispensing Pipette. The plate was then shaken for 10 seconds at 1000 rpm to mix the compounds, and incubated on the benchtop until the positive control wells had gone dark blue.

indigoidine
Pigment stability versus pH [1]: decolouration occurred to a greater extent at higher pH
Pigment stability versus pH (previous observations) [2]: unstable at alkaline pH
Toxicity to E. coli (E. coli): toxic to E. coli over time

O=Nc1ccc2oc(=O)ccc2c1 [6-NOBP]
IC50 (Sfp; 1.25 μM CoA): 2.11 µM
IC50 (Sfp; 5 μM CoA): 9.06 µM
Ki (Sfp; 1.25 μM CoA): 0.7 µM
Ki (Sfp; 5 μM CoA): 1 µM
IC50 (all three PPTases; read-out: IC50 values, range over the three PPTases, CoA concentration set at 5 μM): 9.1 to 10.8 µM
Ki (all three PPTases; read-out: K, values, range over the three PPTases, converted from IC50 with Km of each PPTase): 0.5 to 7.5 µM
IC50 (PP1183; 1.25 μM CoA): 3.7 µM
IC50 (PP1183; 5 μM CoA): 9.81 µM
Ki (PP1183; 1.25 μM CoA): 3.3 µM
Ki (PP1183; 5 μM CoA): 6.8 µM
Outcome in high throughput screen for PcpS inhibitors (PcpS [3]): weak PcpS inhibitor
IC50 (PcpS [4]; 1.25 μM CoA): 4.05 µM
Ki (PcpS [4]; 1.25 μM CoA): 3.1 µM
IC50 (PcpS [4]; 5 μM CoA): 10.8 µM
Ki (PcpS [4]; 5 μM CoA): 4.7 µM
IC50 (holo-BpsA): 29.2 µM

CC(C)(C)c1ccc(S(=O)(=O)/C=C/C#N)cc1 [Bay11-7085]
Qualitative inhibition of PcpS relative to 6-NOBP (PcpS [5]): clearly a stronger inhibitor of PcpS than 6-NOBP
